# Measured values reported in patent publication US20240270679A1, “LIPIDS FOR USE IN LIPID NANOPARTICLE FORMULATIONS” (Acuitas Therapeutics, Inc., priority 2022, published 2024).
# What was measured:
# human IgG in mouse serum = assay: Immunoglobulin G (IgG) mRNA in vivo evaluation using lipid nanoparticle compositions (human IgG ELISA); set-up: species or system mice; settings: tail vein injection, μg IgG/mL serum 24 hours after administration; for Serum IgG @ 0.3 mg/kg: 0.3 mg mRNA/kg; for Serum IgG @ 1.0 mg/kg: 1.0 mg mRNA/kg
# Method: A lipid of structure (I), DSPC, cholesterol and PEG-lipid are solubilized in ethanol at a molar ratio of 50:10:38.5:1.5 or 47.5:10:40.7:1.8. Lipid nanoparticles (LNP) are prepared at a total lipid to mRNA weight ratio of approximately 10:1 to 40:1. Briefly, the mRNA is diluted to 0.2 mg/mL in 10 to 50 mM citrate buffer, pH 4 or 10 to 25 mM acetate buffer, pH 4. Syringe pumps are used to mix the ethanolic lipid solution with the mRNA aqueous solution at a ratio of about 1:5 to 1:3 (vol/vol) with total flow rates above 15 mL/min. The ethanol is then removed, and the external buffer replaced with PBS by dialysis. Finally, the lipid nanoparticles are filtered through a 0.2 µm pore sterile filter.
# Studies are performed in 6-8-week-old CD-1/ICR mice (Envigo) according to guidelines established by an institutional animal care committee (ACC) and the Canadian Council on Animal Care (CCAC). Varying doses of mRNA-lipid nanoparticle are systemically administered by tail vein injection and animals euthanized at a specific time point (e.g., 24 hours) post-administration. The whole blood is collected, and the serum subsequentially separated by centrifuging the tubes of the whole blood at 2000×g for 10 minutes at 4° C. and stored at −80° C. until use for analysis.
# For immunoglobulin G (IgG) ELISA (Life Diagnostics Human IgG ELISA kit), the serum samples are diluted at 100 to 15000 folds with 1× diluent solution. 100 μL of diluted serum is dispensed into anti-human IgG coated 96-well plate in duplicate alongside human IgG standards and incubated in a plate shaker at 150 rpm at 25° C. for 45 minutes. The wells are washed 5 times with 1× wash solution using a plate washer (400 μL/well). 100 μL of HRP conjugate is added into each well and incubated in a plate shaker at the same condition above. The wells are washed 5 times again with 1× wash solution using a plate washer (400 μL/well). 100 μL of TMB reagent is added into each well and incubated in a plate shaker at the same condition above. The reaction is stopped by adding 100 μL of Stop solution to each well. The absorbance is read at 450 nm (A450) with a microplate reader. The amount of human IgG in mouse serum is determined by plotting A450 values for the assay standard against human IgG concentration.
# Representative compounds of the disclosure shown in Table 2 were formulated using the following molar ratio: 50% cationic lipid/10% distearoylphosphatidylcholine (DSPC)/38.5% Cholesterol/1.5% PEG lipid 2-[2-(ω-methoxy(polyethyleneglycol2000)ethoxy]-N,N-ditetradecylacetamide) or 47.5% cationic lipid/10% DSPC/40.7% Cholesterol/1.8% PEG lipid. Activity was determined by measuring luciferase expression in the liver 4 hours following administration via tail vein injection as described in Example 1 or by measuring the amount of human IgG in mouse serum as described in Example 2. The activity was compared at a dose of 1.0 or 0.5 or 0.3 mg mRNA/kg and expressed as ng luciferase/g liver measured 4 hours after administration, as described in Example 1 or as μg IgG/mL serum measured 24 hours after administration, as described in Example 2. Compound numbers in Table 2 refer to the compound numbers of Table 1.
# [1] = Determination of pKa of formulated lipids (TNS fluorescence assay in lipid nanoparticles); format: physicochemical; settings: lipid nanoparticles (compound/DSPC/cholesterol/PEG-lipid), lipid formulated in LNP (cationic lipid/DSPC/cholesterol/PEG-lipid), pH of half-maximal fluorescence
# Method: As described elsewhere, the pKa of formulated lipids is correlated with the effectiveness of LNPs for delivery of nucleic acids (see Jayaraman et al, Angewandte Chemie, International Edition (2012), 51(34), 8529-8533; Semple et al, Nature Biotechnology 28, 172-176 (2010)). In some embodiments, the preferred range of pKa is ˜5 to ˜7. The pKa of each lipid is determined in lipid nanoparticles using an assay based on fluorescence of 2-(p-toluidino)-6-napthalene sulfonic acid (TNS). Lipid nanoparticles comprising compound of structure (I)/DSPC/cholesterol/PEG-lipid (50/10/38.5/1.5 or 47.5:10:40.7:1.8 mol %) in PBS at a concentration of 0.4 mM total lipid are prepared using the in-line process as described in Example 1. TNS is prepared as a 100 μM stock solution in distilled water. Vesicles are diluted to 24 μM lipid in 2 mL of buffered solutions containing 10 mM HEPES, 10 mM MES, 10 mM ammonium acetate, and 130 mM NaCl, where the pH ranged from 2.5 to 11. An aliquot of the TNS solution is added to give a final concentration of 1 μM and following vortex mixing fluorescence intensity is measured at room temperature in a SLM Aminco Series 2 Luminescence Spectrophotometer using excitation and emission wavelengths of 321 nm and 445 nm. A sigmoidal best fit analysis is applied to the fluorescence data and the pKa is measured as the pH giving rise to half-maximal fluorescence intensity.
SMILES,Serum IgG @ 0.3 mg/kg (human IgG in mouse serum) [µg/mL],Serum IgG @ 1.0 mg/kg (human IgG in mouse serum) [µg/mL],pKa [1]
"CCCCCCCCCCN(CCCCCCCCCC)C(=O)CCCCN(C)CCCCN(CCCCCCOC(=O)C(CCCCCC)CCCCCCCC)CCCCCCOC(=O)C(CCCCCC)CCCCCCCC (stereo not drawn) [Compound I-48, ((4-((5-(didecylamino)-5-oxopentyl)(methyl)amino)butyl)azanediyl)bis(hexane-6,1-diyl)bis(2-hexyldecanoate)]",4.4 ± 1.1,21.8 ± 5.0,6.37
"CCCCCCCCC(CCCCCC)COC(=O)CCCCCN(CCCCCC(=O)OCC(CCCCCC)CCCCCCCC)CCCN(C)CCCCC(=O)OC (stereo not drawn) [Compound I-50, Bis(2-hexyldecyl) 6,6′-((3-((5-methoxy-5-oxopentyl)(methyl)amino)propyl)azanediyl)dihexanoate]",15.4 ± 2.6,91.5 ± 19.7,6.46
"CCCCCCCCC(CCCCCC)C(=O)OCCCCCCN(CCCCCCOC(=O)C(CCCCCC)CCCCCCCC)CCCCN(C)CCCCC(=O)N(CCCCCC)CCCCCC (stereo not drawn) [Compound I-47, ((4-((5-(dihexylamino)-5-oxopentyl)(methyl)amino)butyl)azanediyl)bis(hexane-6,1-diyl)bis(2-hexyldecanoate)]",15.3 ± 3.7,61.8 ± 11.5,6.45
